Assay results taken from US20230123695A1, “GLYCAN COMPOSITIONS AND METHODS OF USE” (DSM Nutritional Products, LLC, priority 2018, published 2023).

Columns and labels:
Format in all cases: cell-based, human fecal cultures
[1] = tested on: Firmicutes, Proteobacteria, and/or Actinobacteria; assay: Ex vivo fecal slurry assay, 16S rRNA sequencing (Example 11); conditions: 1% w/v fecal slurry from 12 subjects, glycan 0.5% w/v, 37° C., 18 hours, anaerobically; FIGS. 4-6
Source text: (§1) An ex vivo assay was designed to determine if glycans can be used to modulate a complex community of microorganisms and if the glycans produced consistent effects across communities obtained from multiple (twelve) subjects. Fecal samples and slurries were handled in an anaerobic chamber (AS-580, Anaerobe Systems) featuring a palladium catalyst. Glycans ara100, gal100, glu60man40, glu100, glu50gal50, gal33man33ara33, man75gal25, glu33gal33man34, glu33gal33Ara33, man100, man52glu29gal19 and commercially available glycans lactulose (Alfa Aesar) and FOS (Nutraflora FOS; NOW Foods, Bloomingdale Ill.) were included in the study. The fecal sample donations obtained from 12 subjects were stored at −80° C. To prepare working stocks the fecal samples were transferred into the anaerobic chamber and allowed to thaw.
Microbial beta-glucuronidase, found in Proteobacteria, Firmicutes, and Actinobacteria, is known to modify SN-38 glucuronide, which is used to treat cancer (e.g., colorectal cancer) and has the side-effect of diarrhea, by removing a sugar moiety, creating a compound that is toxic to intestinal epithelial cells. Decreasing the levels or activity of microbial beta-glucuronidase expressing microbes may increase the effectiveness of SN-38 glucuronidine treatment and/or decrease/prevent side effects.

[2] = tested on: Enterococcaceae/Enterococcus and/or Bifidobacteriaceae/Bifidobacterium; assay: Ex vivo fecal slurry assay, 16S rRNA sequencing (Example 15); conditions: 1% w/v fecal slurry from 12 subjects, glycan 0.5% w/v, 37° C., 18 hours, anaerobically; FIGS. 3 and 10
Source text: as §1
A microbial enzyme, found in Enterococcus faecium, Lactobacillus mucosae, Bifidobacterium sp., and Eggerthella sp., is known to metabolize daidzin into equol, which binds estrogen receptor-beta and may be associated with lower risk/incidence of breast cancer. Increasing the levels or activity of microbes expressing said microbial enzyme may increase the have a preventative effect on cancer, e.g., breast cancer, or treat cancer, e.g., breast cancer.

[3] = tested on: Actinobacteria and/or Coriobacteriaceae/Gordonibacter; assay: Ex vivo fecal slurry assay, 16S rRNA sequencing (Example 13); conditions: 1% w/v fecal slurry from 12 subjects, glycan 0.5% w/v, 37° C., 18 hours, anaerobically; FIGS. 6 and 8
Source text: as §1
A microbial enzyme found in Actinobacteria and Coriobacteriaceae/Gordonibacter is known to hydrolyze ellagitannin to ellagic acid.

[4] = tested on: Enterobacteriaceae/Escherichia/Shigella microbes; assay: Ex vivo fecal slurry assay, 16S rRNA sequencing (Example 17); conditions: 1% w/v fecal slurry from 12 subjects, glycan 0.5% w/v, 37° C., 18 hours, anaerobically; FIG. 14
Source text: as §1
Microbial beta-glucuronidase, found in bacteria that carry the uidA gene, e.g., Escherichia coli, is known to reactivate glucuronidated substrate, e.g., heterocyclic amines, (detoxified by hepatic glucuronidation), by removing the conjugate, generating a toxic compound. Decreasing the levels or activity of microbial beta-glucuronidase expressing microbes may decrease the generation of toxic, e.g., carcinogenic, compounds, which may have a preventative effect on cancer.

[5] = tested on: Enterobacteriales/Enterobacteriaceae microbes; assay: Ex vivo fecal slurry assay, 16S rRNA sequencing (Example 19); conditions: 1% w/v fecal slurry from 12 subjects, glycan 0.5% w/v, 37° C., 18 hours, anaerobically; FIG. 15
Source text: as §1
Microbial phosphorylase, e.g., thymidine phosphorylase or uridine phosphorylase, found in Enterobacteria, e.g., K. pneumoniae, is known to deglycosylate sorivudine, inactivating it. Sorivudine is used to treat viral infection (e.g. herpes simplex virus 1 and varicella-zoster virus). Decreasing the levels or activity of microbes expressing said microbial phosphorylase may decrease the inactivation of sorivudine and increase the effectiveness of sorivudine treatment against viral infections.

[6] = tested on: Enterococcaceae/Enterococcus and/or Enterobacteriaceae/Escherichia/Shigella microbes; assay: Ex vivo fecal slurry assay, 16S rRNA sequencing (Example 18); conditions: 1% w/v fecal slurry from 12 subjects, glycan 0.5% w/v, 37° C., 18 hours, anaerobically; FIGS. 3 and 14
Source text: as §1
A microbial enzyme, found in Enterococcus, Clostridium, Corynebacterium, Campylobacter, and Escherichia, is known to convert sweetener to a compound that can be toxic, e.g., converts cyclamate to cyclohexylamine, which can be toxic. Decreasing the levels or activity of microbes expressing said microbial enzyme may decrease the generation of toxic compounds.

[7] = tested on: Ruminococcaceae/Ruminococcus microbes; assay: Ex vivo fecal slurry assay, 16S rRNA sequencing (Example 21); conditions: 1% w/v fecal slurry from 12 subjects, glycan 0.5% w/v, 37° C., 18 hours, anaerobically; FIG. 17
Source text: as §1
A microbial enzyme found in Bacteroidetes (e.g., Bacteroidales) and mucolytic bacteria such as Ruminococcus gnavus, is known to cause metabolic and inflammatory response to emulsifying agents. Decreasing the levels or activity of microbes expressing said microbial enzyme may increase the effectiveness of emulsifying agents, e.g, carboxymethylcellulose or polysorbate-80, e.g., to decrease risk/incidence of metabolic syndrome and/or inflammation.

OC[C@H]1O[C@@H](O[C@@H]2[C@@H](CO)OC(O)(CO)[C@H]2O)[C@H](O)[C@@H](O)[C@H]1O (mixture of isomers) [lactulose]
levels of Firmicutes, Proteobacteria, and/or Actinobacteria [1]: appeared to decrease | levels of Enterococcaceae/Enterococcus and/or Bifidobacteriaceae/Bifidobacterium [2]: appeared to increase | levels of Actinobacteria and/or Coriobacteriaceae/Gordonibacter [3]: appeared to decrease | levels of Enterobacteriaceae/Escherichia/Shigella microbes [4]: appeared to decrease | levels of Enterobacteriales/Enterobacteriaceae microbes [5]: appeared to decrease | levels of Enterococcaceae/Enterococcus and/or Enterobacteriaceae/Escherichia/Shigella microbes [6]: appeared to decrease | levels of Ruminococcaceae/Ruminococcus microbes [7]: appeared to decrease
